Results from the supplement of paper PMC10307832.

Assays:
Test in all cases: relative viability (nuclei count vs DMSO), 5 days (fraction); higher = more cells survive
[1] = compound: C[C@]12O[C@H](C[C@]1(O)CO)n1c3ccccc3c3c4c(c5c6ccccc6n2c5c31)CNC4=O [Lestaurtinib]
Method in brief: (§1)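 MetaXpress counted nuclei in 4× images of lung cancer cell lines that had been fixed, permeabilised and Hoechst-stained in one step. Before that, cells in 1536-well plates were kept overnight at 37 °C, pinned with five √10-spaced library-drug doses on vehicle-anchored plates, and cultured 5 days without medium change. Viability takes treated-well nuclei over vehicle-well nuclei and uses the median across plates. Plates were accepted only at control CV below 25% and at least one doubling.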

[2] = compound: C1/C(=C\C2=CC=CS2)/C(=O)/C(=C/C3=CC=CS3)/C1
Method in brief: as §1

[3] = compound: C1=CC(=CC=C1C2=CC(=C(S2)NC(=O)N)C(=O)N)F [TPCA-1]
Method in brief: as §1

[4] = compound: C1/C(=C\C2=CC=CS2)/C(=O)/C(=C/C3=CC=CS3)/C1 + CC(=O)Nc1cccc(-n2c(=O)n(C3CC3)c(=O)c3c(Nc4ccc(I)cc4F)n(C)c(=O)c(C)c32)c1 [Trametinib] (partner 0.02 µM)
Method in brief: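 The day after seeding in 1536-well plates, lung cancer cell lines were treated by pin tool with a single drug, or with a fixed anchor-drug dose together with five library-drug doses (not always all listed) in √10 steps. After 5 days, a combined fix-and-stain solution (final 0.05% Triton X-100, 1% formaldehyde, 1 ug/ml Hoechst) was added. Nuclei counted on 4× images gave relative viability as treated counts over vehicle counts, reported as the median of duplicate plates.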

| Cell Line | relative viability ([1]; 0.005 µM) | relative viability ([1]; 0.01581 µM) | relative viability ([1]; 0.05 µM) | relative viability ([1]; 0.1581 µM) | relative viability ([1]; 0.5 µM) | relative viability ([2]; 0.2 µM) | relative viability ([2]; 0.6325 µM) | relative viability ([2]; 2 µM) | relative viability ([2]; 6.325 µM) | relative viability ([2]; 20 µM) | relative viability ([3]; 0.04 µM) | relative viability ([3]; 0.1265 µM) | relative viability ([3]; 0.4 µM) | relative viability ([3]; 1.265 µM) | relative viability ([3]; 4 µM) | relative viability ([4]; first compound 0.2 µM) | relative viability ([4]; first compound 0.6325 µM) | relative viability ([4]; first compound 2 µM) | relative viability ([4]; first compound 6.325 µM) | relative viability ([4]; first compound 20 µM) |
| --- | --- | --- | --- | --- | --- | --- | --- | --- | --- | --- | --- | --- | --- | --- | --- | --- | --- | --- | --- | --- |
| SW 1573 | 1.05 | 0.989 | 0.782 | 0.571 | 0.401 | 1.05 | 0.996 | 1.08 | 0.891 | 0.99 | 1.18 | 0.91 | 0.985 | 0.947 | 0.858 | 0.637 | 0.573 | 0.674 | 0.491 | 0.596 |
| NCI-H2405 | 0.97 | 1.08 | 0.974 | 0.822 | 0.532 | 1.01 | 0.988 | 1.14 | 0.959 | 1.02 | 1.08 | 0.944 | 1.09 | 0.816 | 0.842 | 0.688 | 0.578 | 0.603 | 0.585 | 0.699 |
| NCI-H2087 | 1.03 | 0.951 | 0.816 | 0.834 | 0.367 | 1.13 | 0.872 | 1.2 | 0.783 | 1.01 | 1.18 | 0.966 | 0.982 | 0.915 | 0.542 | 0.201 | 0.17 | 0.18 | 0.157 | 0.294 |
| NCI-H460 | 1.08 | 1.09 | 1.04 | 1.08 | 0.836 | 1.05 | 1.01 | 1.05 | 0.823 | 0.971 | 1.03 | 0.984 | 1.01 | 1.04 | 0.889 | 0.158 | 0.305 | 0.163 | 0.0691 | 0.139 |
| LOU-NH91 | 0.946 | 1 | 0.865 | 0.65 | 0.423 | 1.02 | 0.991 | 1.09 | 0.874 | 1.02 | 1.05 | 0.943 | 0.981 | 0.878 | 0.851 | 0.777 | 0.775 | 0.781 | 0.75 | 0.806 |
| NCI-H1651 | 0.989 | 1.05 | 0.81 | 1.07 | 0.69 | 0.978 | 1.07 | 0.985 | 0.861 | 0.949 | 1.05 | 0.921 | 0.955 | 1.01 | 0.877 | 0.861 | 0.775 | 0.816 | 0.807 | 0.843 |
| NCI-H441 | 1.02 | 1.05 | 0.611 | 0.61 | 0.438 | 1.14 | 1.24 | 1.14 | 0.867 | 0.995 | 1.22 | 0.816 | 0.882 | 0.704 | 0.425 | 0.607 | 0.429 | 0.552 | 0.446 | 0.418 |
